Results published in patent US11976072B2, “Diacylglycerol kinase modulating compounds” (priority 2021, dated 2024).
Like-named read-outs stand apart in the source and are kept apart here.

Columns and labels:
human DGKα = human DGKα (Homo sapiens, UniProt P23743); test: DGKα Biochemical Activity Assay (ADP-Glo); conditions: recombinant DGKα 1 nM, 100 μM ATP, 18:1 DAG/POPS/octylglucoside micelles, 1 hour at 25° C.; geometric mean; read-out: HTBS DGKa 1X ATP KM IC50;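 further: luminescent detection of ADP produced as DGKα phosphorylates DAG to phosphatidic acid, IC50 from four-parameter nonlinear curve fit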
Sequence of human DGKα (P23743 whole entry): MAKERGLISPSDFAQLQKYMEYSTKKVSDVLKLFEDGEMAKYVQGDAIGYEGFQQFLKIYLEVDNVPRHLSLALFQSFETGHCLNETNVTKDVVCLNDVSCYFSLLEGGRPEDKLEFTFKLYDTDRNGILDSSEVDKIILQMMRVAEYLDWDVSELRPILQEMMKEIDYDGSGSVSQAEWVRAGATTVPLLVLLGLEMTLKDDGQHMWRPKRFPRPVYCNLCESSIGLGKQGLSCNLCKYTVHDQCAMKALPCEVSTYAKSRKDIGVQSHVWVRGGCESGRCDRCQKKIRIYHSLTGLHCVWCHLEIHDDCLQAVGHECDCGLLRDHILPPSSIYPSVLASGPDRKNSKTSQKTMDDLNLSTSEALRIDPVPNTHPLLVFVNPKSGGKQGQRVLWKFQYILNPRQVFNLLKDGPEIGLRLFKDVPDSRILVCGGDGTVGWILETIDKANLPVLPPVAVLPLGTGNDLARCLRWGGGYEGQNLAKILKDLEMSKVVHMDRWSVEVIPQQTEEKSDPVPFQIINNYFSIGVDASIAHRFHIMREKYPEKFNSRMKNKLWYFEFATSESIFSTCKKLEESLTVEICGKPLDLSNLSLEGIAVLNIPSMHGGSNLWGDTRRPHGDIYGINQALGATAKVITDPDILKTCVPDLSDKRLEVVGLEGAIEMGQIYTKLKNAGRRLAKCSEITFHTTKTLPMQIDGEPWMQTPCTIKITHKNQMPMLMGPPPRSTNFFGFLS

[1] = test system: Jurkat NFκB-luciferase cells; test: Jurkat NFκB-Luciferase Assay; assay type: cell-based; conditions: Homo sapiens
Procedure, shortened: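 Luminescence from One-Glo Ex, read 7 min post-addition, reports NFκB activation in Jurkat luciferase reporter cells. Cells, diluted to 1 million cells/ml in 10% FBS RPMI, were dispensed onto plates holding compound and washed, pre-bound antibody.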

[2] = Jurkat NFκB-luciferase cells activated with anti-CD3 antibody (OKT3), 2.5 hrs at 37° C., geometric mean, read-out: DGK NFKb Luciferase EC50
[3] = Jurkat, […], read-out: DGK NFKb Luciferase EC50 (nM)

Structure (SMILES) | IC50 (human DGKα) | EC50 [1, 2] | EC50 [1, 3]
Cc1nnc2nc(N3CCCc4c(N5CCN(S(C)(=O)=O)CC5)cccc43)c3c(F)cccc3n12 [Example 160, 6-fluoro-1-methyl-5-[5-(4-methylsulfonylpiperazin-1-yl)-3,4-dihydro-2H-quinolin-1-yl]-[1,2,4]triazolo[4,3-a]quinazoline] | 74.9 nM | 28.6 nM | 
Cc1nnc2nc(N3CCCc4c(N5CCN(C(=O)OC(C)(C)C)CC5)cccc43)c3c(F)cccc3n12 [Example 161, tert-butyl 4-[1-(6-fluoro-1-methyl-[1,2,4]triazolo[4,3-a]quinazolin-5-yl)-3,4-dihydro-2H-quinolin-5-yl]piperazine-1-carboxylate] | 87.1 nM |  | 5.49 nM
Cc1nnc2nc(N3CCN(C)Cc4c(C#CC(C)(C)C(F)(F)F)cccc43)c3c(F)cccc3n12 [Example 162, 6-fluoro-1-methyl-5-[4-methyl-6-(4,4,4-trifluoro-3,3-dimethyl-but-1-ynyl)-3,5-dihydro-2H-1,4-benzodiazepin-1-yl]-[1,2,4]triazolo[4,3-a]quinazoline] | 15 nM | 3.33 nM | 
Cc1nnc2nc(N3CCN(C)Cc4c(C#CC5(C(F)(F)F)CC5)cccc43)c3c(F)cccc3n12 [Example 164, 6-fluoro-1-methyl-5-[4-methyl-6-[2-[1-(trifluoromethyl)cyclopropyl]ethynyl]-3,5-dihydro-2H-1,4-benzodiazepin-1-yl]-[1,2,4]triazolo[4,3-a]quinazoline] | 13 nM | 3.63 nM | 
Cc1nnc2nc(N3CCN(C)Cc4c(C#CC5(C)CC5)cccc43)c3c(F)cccc3n12 [Example 165, 6-fluoro-1-methyl-5-[4-methyl-6-[2-(1-methylcyclopropyl)ethynyl]-3,5-dihydro-2H-1,4-benzodiazepin-1-yl]-[1,2,4]triazolo[4,3-a]quinazoline] | 7.6 nM | 5.35 nM | 
Cc1nnc2nc(N3CCN(C)Cc4c(C#CC5(C(C)(F)F)CC5)cccc43)c3c(F)cccc3n12 [Example 166, 5-[6-[2-[1-(1,1-difluoroethyl)cyclopropyl]ethynyl]-4-methyl-3,5-dihydro-2H-1,4-benzodiazepin-1-yl]-6-fluoro-1-methyl-[1,2,4]triazolo[4,3-a]quinazoline] | 17.4 nM | 15.8 nM | 
Cc1nnc2nc(N3CCCOc4c(C#CC5CC5)cncc43)c3c(F)c(F)ccc3n12 [Example 167, 9-(2-cyclopropylethynyl)-5-(6,7-difluoro-1-methyl-[1,2,4]triazolo[4,3-a]quinazolin-5-yl)-3,4-dihydro-2H-pyrido[4,3-b][1,4]oxazepine] | 18 nM | 5.84 nM | 
Cc1nnc2nc(N3CCN(C)Cc4c(C#CC(C)(C)C(F)(F)F)cccc43)c3c(F)c(F)ccc3n12 [Example 168, 6,7-difluoro-1-methyl-5-[4-methyl-6-(4,4,4-trifluoro-3,3-dimethyl-but-1-ynyl)-3,5-dihydro-2H-1,4-benzodiazepin-1-yl]-[1,2,4]triazolo[4,3-a]quinazoline] | 10.4 nM | 5.41 nM | 
Cc1nnc2nc(N3CCN(C)Cc4c(C#CC(C)(C)O)cccc43)c3cc(F)ccc3n12 [Example 170, 4-[1-(7-fluoro-1-methyl-[1,2,4]triazolo[4,3-a]quinazolin-5-yl)-4-methyl-3,5-dihydro-2H-1,4-benzodiazepin-6-yl]-2-methyl-but-3-yn-2-ol] | 51 nM |  | 358 nM
Cc1nnc2nc(N3CCN(C)Cc4c(C#CC(C)(C)C(F)(F)F)cccc43)c3cc(F)ccc3n12 [Example 171, 7-fluoro-1-methyl-5-[4-methyl-6-(4,4,4-trifluoro-3,3-dimethyl-but-1-ynyl)-3,5-dihydro-2H-1,4-benzodiazepin-1-yl]-[1,2,4]triazolo[4,3-a]quinazoline] | 14.8 nM | 7.36 nM | 
Cc1nnc2nc(N3CCN(C)Cc4c(C#CC5(C(F)(F)F)CC5)cccc43)c3cc(F)ccc3n12 [Example 172, 7-fluoro-1-methyl-5-[4-methyl-6-[2-[1-(trifluoromethyl)cyclopropyl]ethynyl]-3,5-dihydro-2H-1,4-benzodiazepin-1-yl]-[1,2,4]triazolo[4,3-a]quinazoline] | 8.77 nM | 3.23 nM | 
Cc1nnc2nc(N3CCCOc4c(C#CC5(C)CC5)cncc43)c3cc(F)ccc3n12 [Example 173, 5-(7-fluoro-1-methyl-[1,2,4]triazolo[4,3-a]quinazolin-5-yl)-9-[2-(1-methylcyclopropyl)ethynyl]-3,4-dihydro-2H-pyrido[4,3-b][1,4]oxazepine] | 17.2 nM | 2.03 nM | 
CC(C)(O)C#Cc1cccc2c1CCCN2c1nc2nncn2c2ccccc12 [Example 174, 2-methyl-4-[1-([1,2,4]triazolo[4,3-a]quinazolin-5-yl)-3,4-dihydro-2H-quinolin-5-yl]but-3-yn-2-ol] | 26.7 nM |  | 12 nM
FC(F)(F)C1(C#Cc2cccc3c2CCCN3c2nc3nncn3c3ccccc23)CC1 [Example 175, 5-[5-[2-[1-(trifluoromethyl)cyclopropyl]ethynyl]-3,4-dihydro-2H-quinolin-1-yl]-[1,2,4]triazolo[4,3-a]quinazoline] | 110 nM | 1.74 nM | 
Cc1nnc2nc(N3CCCCc4c(C#CC(C)(C)NC(=O)C5(C(F)(F)F)CC5)cccc43)c3c(F)c(F)ccc3n12 [Example 176] | 12.4 nM | 6.67 nM | 
Cc1nnc2nc(N3CCOCc4c(C#CC(C)(C)NS(=O)(=O)C5(C(F)F)CC5)cccc43)c3c(F)cccc3n12 [Example 178, 1-(Difluoromethyl)-N-[3-[1-(6-fluoro-1-methyl-[1,2,4]triazolo[4,3-a]quinazolin-5-yl)-3,5-dihydro-2H-4,1-benzoxazepin-6-yl]-1,1-dimethyl-prop-2-ynyl]cyclopropanesulfonamide] | 44.9 nM | 10.2 nM | 
Cc1nc(C#Cc2cccc3c2COCCN3c2nc3nnc(C)n3c3cccc(F)c23)co1 [Example 179, 1-(6-Fluoro-1-methyl-[1,2,4]triazolo[4,3-a]quinazolin-5-yl)-6-[2-(2-methyloxazol-4-yl)ethynyl]-3,5-dihydro-2H-4,1-benzoxazepine] | 9.59 nM | 9.13 nM | 
Cc1nnc2nc(N3CCCCc4c(C#CC(C)(C)NC(=O)C5(C(F)(F)F)CC5)cccc43)c3c(F)cccc3n12 [Example 183, N-(4-(1-(6-fluoro-1-methyl-[1,2,4]triazolo[4,3-a]quinazolin-5-yl)-2,3,4,5-tetrahydro-1H-benzo[b]azepin-6-yl)-2-methylbut-3-yn-2-yl)-1-(trifluoromethyl)cyclopropane-1-carboxamide] | 28.4 nM | 11.8 nM | 

The remaining compounds from weak to strong by IC50 (human DGKα), led by results:

IC50 (human DGKα) | EC50 [1, 2] | Structure (SMILES) | EC50 [1, 3]
7.51 nM | 0.787 nM | Cc1nnc2nc(N3CCOCc4c(C#CC(C)(C)C(C)(F)F)cccc43)c3c(F)c(F)ccc3n12 [Example 184, 6-(4,4-Difluoro-3,3-dimethyl-pent-1-ynyl)-1-(6,7-difluoro-1-methyl-[1,2,4]triazolo[4,3-a]quinazolin-5-yl)-3,5-dihydro-2H-4,1-benzoxazepine] | 
7.3 nM | 4.39 nM | Cc1nnc2nc(N3CCN(C)Cc4c(C#CC5(C(F)(F)F)CC5)cccc43)c3c(F)c(F)ccc3n12 [Example 169, 6,7-difluoro-1-methyl-5-[4-methyl-6-[2-[1-(trifluoromethyl)cyclopropyl]ethynyl]-3,5-dihydro-2H-1,4-benzodiazepin-1-yl]-[1,2,4]triazolo[4,3-a]quinazoline] | 
6.74 nM | 23.4 nM | Cc1nnc2nc(N3CCCCc4c(C#CC5(NC(=O)C6(C(F)(F)F)CC6)CC5)cccc43)c3c(F)cccc3n12 [Example 177, N-(1-((1-(6-Fluoro-1-methyl-[1,2,4]triazolo[4,3-a]quinazolin-5-yl)-2,3,4,5-tetrahydro-1H-benzo[b]azepin-6-yl)ethynyl)cyclopropyl)-1-(trifluoromethyl)cyclopropane-1-carboxamide] | 
6.51 nM | 2.84 nM | Cc1nnc2nc(N3CCCCc4c(C#CC(C)(C)C#N)cccc43)c3c(F)c(F)ccc3n12 [Example 186, 4-[1-(6,7-Difluoro-1-methyl-[1,2,4]triazolo[4,3-a]quinazolin-5-yl)-2,3,4,5-tetrahydro-1-benzazepin-6-yl]-2,2-dimethyl-but-3-ynenitrile] | 
5.12 nM | 13.5 nM | Cc1nnc2nc(N3CCOCc4c(C#CC(C)(C)NC(=O)C(C)(C)C(C)(F)F)cccc43)c3c(F)cccc3n12 [Example 180, 3,3-Difluoro-N-[3-[1-(6-fluoro-1-methyl-[1,2,4]triazolo[4,3-a]quinazolin-5-yl)-3,5-dihydro-2H-4,1-benzoxazepin-6-yl]-1,1-dimethyl-prop-2-ynyl]-2,2-dimethyl-butanamide] | 
4.58 nM | 1.09 nM | Cc1nnc2nc(N3CCCCc4c(C#CC5(C)COC5)cccc43)c3c(F)c(F)ccc3n12 [Example 185, 6,7-Difluoro-1-methyl-5-[6-[2-(3-methyloxetan-3-yl)ethynyl]-2,3,4,5-tetrahydro-1-benzazepin-1-yl]-[1,2,4]triazolo[4,3-a]quinazoline] | 
4.06 nM | 12.4 nM | Cc1nnc2nc(N3CCOCc4c(C#CC(C)(C)NC(=O)C5(C(C)(F)F)CC5)cccc43)c3c(F)cccc3n12 [Example 181, 1-(1,1-Difluoroethyl)-N-[3-[1-(6-fluoro-1-methyl-[1,2,4]triazolo[4,3-a]quinazolin-5-yl)-3,5-dihydro-2H-4,1-benzoxazepin-6-yl]-1,1-dimethyl-prop-2-ynyl]cyclopropanecarboxamide] | 
2.41 nM | 4.27 nM | Cc1nnc2nc(N3CCOCc4c(C#CC(C)(C)NC(=O)C5(C(F)(F)F)CC5)cccc43)c3c(F)c(F)ccc3n12 [Example 182, N-[3-[1-(6,7-Difluoro-1-methyl-[1,2,4]triazolo[4,3-a]quinazolin-5-yl)-3,5-dihydro-2H-4,1-benzoxazepin-6-yl]-1,1-dimethyl-prop-2-ynyl]-1-(trifluoromethyl)cyclopropanecarboxamide] | 
